Experiments:
D2 = D2 (Homo sapiens, UniProt P14416); experiment: G protein dissociation BRET assay; format: cell-based
5-HT2A [1] = biological target: T1, 5-HT2A (Homo sapiens, UniProt P28223); format: cell-based; settings: Gq dissociation
rat cortical neurons = experiment: Spinogenesis in cultured cortical neurons; format: cell-based; settings: 1 and 10 μM, 3 h at DIV18, read 24 h after onset
5-HT1A = 5-HT1A (Homo sapiens, UniProt P08908); experiment: β-arrestin2 recruitment BRET assay; format: cell-based
5-HT1A, sequence (P08908 whole entry): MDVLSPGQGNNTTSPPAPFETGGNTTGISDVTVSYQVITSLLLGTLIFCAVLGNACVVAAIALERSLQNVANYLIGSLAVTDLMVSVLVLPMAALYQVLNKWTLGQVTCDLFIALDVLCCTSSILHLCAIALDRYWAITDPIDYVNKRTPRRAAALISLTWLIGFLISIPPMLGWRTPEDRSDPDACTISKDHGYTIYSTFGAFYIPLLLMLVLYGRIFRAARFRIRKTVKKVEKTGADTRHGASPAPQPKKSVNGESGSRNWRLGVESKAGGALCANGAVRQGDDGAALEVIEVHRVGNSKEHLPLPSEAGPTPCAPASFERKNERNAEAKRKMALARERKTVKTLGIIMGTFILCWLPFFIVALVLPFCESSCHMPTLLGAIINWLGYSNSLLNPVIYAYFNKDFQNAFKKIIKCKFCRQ

5-HT2A [2] = biological target: T1, 5-HT2A; experiment: NanoBit HiBiT surface expression/internalization assay; format: cell-based; settings: 60 minutes of treatment
β1 = β1 (Homo sapiens, UniProt P08588); experiment: G protein dissociation BRET assay; format: cell-based; settings: read-out: KB (antagonist)
β1, sequence (P08588 whole entry): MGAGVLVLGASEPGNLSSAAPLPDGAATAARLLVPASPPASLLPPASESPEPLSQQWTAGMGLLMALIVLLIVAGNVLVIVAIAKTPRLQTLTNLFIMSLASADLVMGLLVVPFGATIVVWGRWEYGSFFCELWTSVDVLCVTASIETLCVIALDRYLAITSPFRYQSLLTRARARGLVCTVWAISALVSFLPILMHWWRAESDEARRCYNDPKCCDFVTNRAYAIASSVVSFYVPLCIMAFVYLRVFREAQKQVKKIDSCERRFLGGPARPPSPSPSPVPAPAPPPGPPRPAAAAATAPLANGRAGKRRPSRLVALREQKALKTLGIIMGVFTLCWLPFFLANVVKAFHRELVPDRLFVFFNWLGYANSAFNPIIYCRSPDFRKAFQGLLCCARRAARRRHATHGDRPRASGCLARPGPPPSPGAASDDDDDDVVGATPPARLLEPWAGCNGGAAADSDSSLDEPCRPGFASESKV

H2 = H2 (Homo sapiens, UniProt P25021); experiment: G protein dissociation BRET assay; format: cell-based
H2, sequence (P25021 whole entry): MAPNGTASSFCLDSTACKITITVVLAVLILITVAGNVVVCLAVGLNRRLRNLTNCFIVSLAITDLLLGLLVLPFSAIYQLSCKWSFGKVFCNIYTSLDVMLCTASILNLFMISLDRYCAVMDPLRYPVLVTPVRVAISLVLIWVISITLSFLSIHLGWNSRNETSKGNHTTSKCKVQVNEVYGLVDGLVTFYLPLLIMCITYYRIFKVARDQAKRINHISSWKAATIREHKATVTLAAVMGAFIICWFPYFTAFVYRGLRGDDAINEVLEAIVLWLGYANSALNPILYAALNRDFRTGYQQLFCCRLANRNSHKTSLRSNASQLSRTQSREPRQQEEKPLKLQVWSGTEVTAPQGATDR

5-HT5A = 5-HT5A (Homo sapiens, UniProt P47898); experiment: G protein dissociation BRET assay; format: cell-based; settings: read-out: KB (antagonist), 37°C, 60 minutes
5-HT5A, sequence (P47898 whole entry): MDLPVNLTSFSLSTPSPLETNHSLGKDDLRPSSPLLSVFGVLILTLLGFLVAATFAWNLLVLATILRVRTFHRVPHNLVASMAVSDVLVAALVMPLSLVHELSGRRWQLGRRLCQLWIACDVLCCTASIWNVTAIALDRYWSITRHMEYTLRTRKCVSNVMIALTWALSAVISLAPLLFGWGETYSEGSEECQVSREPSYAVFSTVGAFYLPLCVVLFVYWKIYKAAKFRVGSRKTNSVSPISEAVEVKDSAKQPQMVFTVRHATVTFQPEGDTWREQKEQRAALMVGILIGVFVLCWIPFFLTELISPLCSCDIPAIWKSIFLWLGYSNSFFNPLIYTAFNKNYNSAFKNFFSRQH

α2A = α2A (Homo sapiens, UniProt P08913); experiment: G protein dissociation BRET assay; format: cell-based; settings: read-out: KB (antagonist)
α2A, sequence (P08913 whole entry): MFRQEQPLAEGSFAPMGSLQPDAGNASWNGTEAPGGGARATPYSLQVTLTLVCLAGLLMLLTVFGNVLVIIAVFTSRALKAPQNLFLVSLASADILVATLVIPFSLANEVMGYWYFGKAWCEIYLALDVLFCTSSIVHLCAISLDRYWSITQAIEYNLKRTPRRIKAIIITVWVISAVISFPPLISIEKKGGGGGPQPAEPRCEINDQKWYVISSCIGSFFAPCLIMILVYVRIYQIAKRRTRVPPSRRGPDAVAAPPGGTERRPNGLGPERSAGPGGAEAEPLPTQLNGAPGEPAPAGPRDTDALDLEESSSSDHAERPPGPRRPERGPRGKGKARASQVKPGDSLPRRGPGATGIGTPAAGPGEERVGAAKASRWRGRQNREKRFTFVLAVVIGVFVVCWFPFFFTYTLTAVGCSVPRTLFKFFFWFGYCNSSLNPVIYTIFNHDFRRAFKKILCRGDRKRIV

hERG (KV11.1) channel = hERG (KV11.1) channel (Homo sapiens, UniProt Q12809); settings: read-out: IC50 (hERG inhibition)
hERG (KV11.1) channel, sequence (Q12809 whole entry): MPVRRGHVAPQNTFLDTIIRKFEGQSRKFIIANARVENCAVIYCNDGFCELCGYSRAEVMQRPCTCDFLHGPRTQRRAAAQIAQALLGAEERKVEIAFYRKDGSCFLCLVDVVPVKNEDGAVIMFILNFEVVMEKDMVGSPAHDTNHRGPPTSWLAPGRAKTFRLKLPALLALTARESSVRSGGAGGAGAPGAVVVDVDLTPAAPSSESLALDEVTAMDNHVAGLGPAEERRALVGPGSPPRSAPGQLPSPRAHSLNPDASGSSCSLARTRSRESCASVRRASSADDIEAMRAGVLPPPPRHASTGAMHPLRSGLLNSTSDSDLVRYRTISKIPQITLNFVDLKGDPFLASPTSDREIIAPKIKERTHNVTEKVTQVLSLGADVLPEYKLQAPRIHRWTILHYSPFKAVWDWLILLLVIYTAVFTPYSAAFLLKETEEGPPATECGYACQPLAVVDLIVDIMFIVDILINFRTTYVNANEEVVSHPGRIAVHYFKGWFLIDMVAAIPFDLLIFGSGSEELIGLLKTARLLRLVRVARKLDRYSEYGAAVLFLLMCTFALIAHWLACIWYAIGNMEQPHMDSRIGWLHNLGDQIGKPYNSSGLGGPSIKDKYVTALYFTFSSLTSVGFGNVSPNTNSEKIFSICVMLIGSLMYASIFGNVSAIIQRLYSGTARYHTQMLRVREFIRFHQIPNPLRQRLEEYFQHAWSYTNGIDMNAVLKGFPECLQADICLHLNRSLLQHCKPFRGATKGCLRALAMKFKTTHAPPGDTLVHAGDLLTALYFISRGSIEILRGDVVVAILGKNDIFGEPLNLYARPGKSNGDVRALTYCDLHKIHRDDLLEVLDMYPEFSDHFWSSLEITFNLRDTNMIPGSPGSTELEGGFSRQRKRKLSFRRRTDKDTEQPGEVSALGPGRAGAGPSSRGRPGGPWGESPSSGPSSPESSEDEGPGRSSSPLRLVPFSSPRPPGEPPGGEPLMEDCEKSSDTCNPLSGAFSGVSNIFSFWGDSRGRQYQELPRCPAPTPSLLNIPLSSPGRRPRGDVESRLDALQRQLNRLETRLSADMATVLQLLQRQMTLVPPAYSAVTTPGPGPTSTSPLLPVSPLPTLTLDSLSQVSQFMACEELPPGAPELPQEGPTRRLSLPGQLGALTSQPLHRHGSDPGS

T1 sequence (P28223 whole entry): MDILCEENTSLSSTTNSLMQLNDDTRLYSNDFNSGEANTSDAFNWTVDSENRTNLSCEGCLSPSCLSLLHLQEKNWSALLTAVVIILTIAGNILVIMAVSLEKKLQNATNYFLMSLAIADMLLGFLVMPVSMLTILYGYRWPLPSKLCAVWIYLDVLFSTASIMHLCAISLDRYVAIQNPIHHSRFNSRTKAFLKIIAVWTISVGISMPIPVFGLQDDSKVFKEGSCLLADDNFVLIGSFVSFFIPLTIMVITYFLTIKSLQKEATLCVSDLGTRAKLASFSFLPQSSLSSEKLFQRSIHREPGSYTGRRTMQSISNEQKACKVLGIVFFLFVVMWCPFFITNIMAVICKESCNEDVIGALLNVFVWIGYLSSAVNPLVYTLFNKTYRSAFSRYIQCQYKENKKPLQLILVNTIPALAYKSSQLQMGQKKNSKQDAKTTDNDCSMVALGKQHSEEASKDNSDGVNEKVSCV
D2, sequence (P14416 whole entry): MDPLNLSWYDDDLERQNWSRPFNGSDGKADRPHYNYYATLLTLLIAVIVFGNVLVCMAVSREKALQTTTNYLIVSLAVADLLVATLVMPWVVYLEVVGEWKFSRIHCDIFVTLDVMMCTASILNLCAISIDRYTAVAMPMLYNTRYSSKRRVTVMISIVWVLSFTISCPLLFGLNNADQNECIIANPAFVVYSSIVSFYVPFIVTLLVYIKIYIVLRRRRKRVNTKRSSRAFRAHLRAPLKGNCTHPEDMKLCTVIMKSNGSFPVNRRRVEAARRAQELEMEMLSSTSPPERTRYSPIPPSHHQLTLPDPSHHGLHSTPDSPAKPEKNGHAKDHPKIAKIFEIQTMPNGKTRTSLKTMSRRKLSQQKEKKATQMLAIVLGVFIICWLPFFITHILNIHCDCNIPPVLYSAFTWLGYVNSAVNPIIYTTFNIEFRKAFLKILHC

Work on `CCN(CC)C(=O)[C@@H]1C=C2c3cccc4[nH]c(Br)c(c34)C[C@H]2N(C)C1.CCN(CC)C(=O)[C@@H]1C=C2c3cccc4[nH]c(Br)c(c34)C[C@H]2N(C)C1.O=C(O)C(O)C(O)C(=O)O` [2-Br-LSD, (6aR,9R)-2-bromolysergic acid diethylamide (2:1) (+)-tartrate] yielded an EC50 (D2) of 0.35 nM, an EC50 (5-HT2A [1]) of 0.81 nM and an EMAX (5-HT2A [1]; normalized to 5-HT) of 59.8%. For the same compound, the spine density (rat cortical neurons) was “spine density increased”, the β-arrestin2 recruitment agonism (5-HT1A) was “no detectable β-arrestin2 recruitment agonism” and the “5-HT2A internalization (loss of surface expression)” value (5-HT2A [2]) was “partial agonist effect”. The Kb (β1) was 113 nM, the “agonism at H2” value (H2) was “weak partial agonism” and the Kb (5-HT5A) was 4.14 nM. The Kb (α2A) was 12 nM and the IC50 (hERG (KV11.1) channel) was 31600 nM.

From PMC10112881 (Cell reports, 2023)
